# Where a name gives a salt, the structure may show the parent alone.
# Legend:
# SARS-CoV-2 [1] = details: cited from earlier work
# SARS-CoV-2 [2] = assay: Antiviral activity against SARS-CoV-2 in Vero E6 cells, qRT-PCR of virus yield in supernatant at 48 h p.i.; format: cell-based; details: for anti-SARS-CoV-2 activity (in words): up to the highest drug concentrations; for EC50: Severe acute respiratory syndrome coronavirus 2, Vero C1008, 48 h, read-out: 50% maximal effective concentration (EC50)
# COVID-19 patients = system: COVID-19 patients; parameters: method as in PMID 32176772; details: retrospective study; cited from earlier work
# SARS-CoV-2 [3] = assay: Cytopathic effects (CPE) and immunofluorescence staining of infected cells; format: cell-based; details: Vero E6 cells, 48 h p.i., MOI 0.05
# influenza viruses = details: read-out: EC50 against different influenza viruses; cited from earlier work
# [4] = humans, single oral administration of 800 mg; cited from earlier work
# SARS-CoV-2 NP expression = assay: Time-of-addition experiment, viral NP expression by western blot; format: cell-based; details: arbidol 10 μM, 16 h p.i.
# Description: (§1) The antiviral efficacy was evaluated in Vero E6 cells by qRT-PCR analysis of virus yield at 48 h p.i. Data represent the mean ± standard deviation (SD) from two independent repeats. b, c Time-of-addition experiment of arbidol. Three experimental groups (Full-time, Entry, and Post-entry) were set up as described in the Supplementary Methods. At 16 h p.i., virus yield in the cell supernatant was quantified by qRT-PCR (b), and the expression of NP in infected cells was analyzed by western blots (c). […] The co-localization of virions with EEs or LEs was analyzed by immunofluorescence assays as described in the Supplementary Methods. e The portion of virions that co-localized with EEs or ELs in each group (n > 150 cells) was quantified by Image J. f Representative confocal microscopic images of virions (red) and LAMP1^+ ELs (green) in each group. The nuclei (blue) were stained with Hoechst 33258 dye. White arrows: virions co-localized with ELs; bars: 10 μm. For (b) and (e), statistical analysis was performed using a one-way analysis of variance (ANOVA) with GraphPad Prism. For (d), statistical analysis was performed and calculated by unpaired two-tailed t test. *P < 0.05; ***P < 0.001; ns, not significant.
# Arbidol was incubated with cells during the virus entry process (Entry), the post-entry stages (Post-entry), or the entire process of infection (Full-time) and progeny virus yield was quantified by qRT-PCR.
# Viral RNA/DNA Extraction Kit; Takara, CAT No. 9766). Three microliter out of 30 μL total eluted RNA was used for cDNA synthesis with a PrimeScript RT Reagent Kit with gDNA Eraser (Takara, CAT No. RR047A). The qRT-PCR was performed with TB Green Premix Ex Taq II (Takara, CAT No. RR820A) on a StepOne Plus Real-time PCR system (AB). The primers used for qRT-PCR were RBD-qF1: […]
# RBD-qR1:5’-[…]-3’. The experiments were performed in triplicate with two independent repeats and the data represent the mean ± SD from […]
# Time-of-addition experiment […]
# At 16 h p.i., virus production in the culture supernatants was quantified by qRT -PCR. […]
# SARS-CoV-2 binding = assay: Virus binding assay on Vero E6 cells at 4 °C, qRT-PCR; format: cell-based; details: arbidol 10 μM, 4 °C for 1 h, MOI 0.05, P < 0.001
# SARS-CoV-2 virions = assay: Intracellular trafficking: co-localization of virions with EEs or ELs by immunofluorescence; format: cell-based; details: arbidol 10 μM, MOI 5
# SARS-CoV-2 [5] = assay: Time-of-addition experiment, virus yield by qRT-PCR; format: cell-based
# Description: as §1, with “For (b) and (e), statistical analysis was performed using a one-way analysis of variance (ANOVA) with GraphPad Prism.” left out
# Arbidol was incubated with cells during the virus entry process (Entry), the post-entry stages (Post-entry), or the entire process of infection (Full-time) and progeny virus yield was quantified by qRT-PCR. […]
# At 16 h p.i., virus production in the culture supernatants was quantified by qRT -PCR.
# [6] = Cytotoxicity by cell counting kit-8 (CCK8) assay; details: African green monkey
# SARS-CoV = details: cited from earlier work
smiles,measurement,setting,value
NC(=O)c1nc(F)c[nH]c1=O [favipiravir],efficacy against SARS-CoV-2 in vitro (in words),SARS-CoV-2 [1],showed a certain efficacy
"CCC(CC)[C@H](NC(C)=O)[C@@H]1[C@H](O)[C@@H](C(=O)O)C[C@H]1N=C(N)N.O.O.O [Peramivir, Peramivir Trihydrate]",anti-SARS-CoV-2 activity (in words),SARS-CoV-2 [2]; Vero E6 cells,did not exhibit anti-SARS-CoV-2 activity
"CCOC(=O)c1c(CSc2ccccc2)n(C)c2cc(Br)c(O)c(CN(C)C)c12 [arbidol, Arbidol hydrochloride]",discharging rate and mortality rate of COVID-19 patients (in words),COVID-19 patients,tendency to improve the discharging rate and decrease the mortality rate
same,viral NP expression and CPE due to SARS-CoV-2,SARS-CoV-2 [3],substantially reduced
same,EC50,influenza viruses,2.5 to 20 µM
same,Cmax,[4],~4.1 µM
same,"expression level of viral NP (NP/GAPDH), % of the DMSO group, Entry",SARS-CoV-2 NP expression; Entry stage,41%
same,"expression level of viral NP (NP/GAPDH), % of the DMSO group, Full-time",SARS-CoV-2 NP expression; Full-time,13%
same,"expression level of viral NP (NP/GAPDH), % of the DMSO group, Post-entry",SARS-CoV-2 NP expression; Post-entry stage,61%
same,"portion of unbound virions, % of the control group",SARS-CoV-2 binding,156%
same,virions co-localized with EEs,"SARS-CoV-2 virions; 30 min p.i., DMSO 24.0%",21.4%
same,virions co-localized with EEs,"SARS-CoV-2 virions; 60 min p.i., DMSO 5.1%",4.1%
same,virions co-localized with ELs,"SARS-CoV-2 virions; 60 min p.i., DMSO 18.3%, P < 0.05",22.4%
same,virions co-localized with EEs,"SARS-CoV-2 virions; 90 min p.i., DMSO 3.2%",2.8%
same,virions co-localized with ELs,"SARS-CoV-2 virions; 90 min p.i., DMSO ~13.5%, P < 0.001",~ 23.6%
same,inhibition at 10 µM,"SARS-CoV-2 [5]; Severe acute respiratory syndrome coronavirus 2, 16 h, read-out: inhibition rate of virus yield, Post-entry",~55%
same,"inhibition of virus yield, Entry","SARS-CoV-2 [5]; arbidol 10 μM during virus entry, MOI 0.05, 16 h p.i.",~ 75%
CC(=O)N[C@H]1[C@H]([C@H](O)[C@H](O)CO)OC(C(=O)O)=C[C@@H]1N=C(N)N [Zanamivir],EC50,SARS-CoV-2 [2],> 100 µM
same,anti-SARS-CoV-2 activity (in words),SARS-CoV-2 [2]; Vero E6 cells,did not exhibit anti-SARS-CoV-2 activity
same,CC50 at 24 h,[6],> 100 µM
same,inhibition of SARS-CoV (in words),SARS-CoV,ineffective
"COC(=O)OCOc1c2n(ccc1=O)N([C@@H]1c3ccccc3SCc3c1ccc(F)c3F)[C@@H]1COCCN1C2=O [Baloxavir, Baloxavir marboxil]",inhibition of SARS-CoV-2 in vitro (in words),SARS-CoV-2 [1]; ref 11 (Choy et al.),failed to inhibit
same,anti-SARS-CoV-2 activity (in words),SARS-CoV-2 [2]; Vero E6 cells,failed to block SARS-CoV-2 infection
same,inhibition of SARS-CoV-2 infection,"SARS-CoV-2 [2]; at 50 μM, Vero E6 cells, 48 h p.i.",~ 29%
[H]/N=C(\N)N[C@H]1C=C(C(=O)O)O[C@@H]([C@H](OC)[C@H](O)CO)[C@@H]1NC(C)=O [Laninamivir],EC50,SARS-CoV-2 [2],> 30 µM
same,anti-SARS-CoV-2 activity (in words),SARS-CoV-2 [2]; Vero E6 cells,did not exhibit anti-SARS-CoV-2 activity
same,CC50 at 24 h,[6],> 100 µM

# Reference: paper PMC7195821 (Cell Discovery, 2020)
